Reference: paper PMC11574760, “Altering Active-Site Loop Dynamics Enhances Standalone Activity of the Tryptophan Synthase Alpha Subunit” (ACS Catalysis, 2024)

Tests used:
Test in all cases: steady-state kinetics, coupled assay with GAP dehydrogenase (NAD+)
[1] = target: T1, ZmTrpA + ZmTrpB (Zea mays, UniProt B2Y0K4); type: biochemical; conditions: retro-aldol cleavage, 100 mM EPPS/KOH pH 7.5, 180 mM KCl, 40 μM PLP, 6 mM NAD+, 20 mM Na3AsO4, 100 mM L-serine, 30 °C
T1 construct: gene TSA; alpha-beta-beta-alpha tryptophan synthase complex, TrpB in excess; construct details only in supplement; with Tryptophan synthase beta chain, chloroplastic
T1 sequence (B2Y0K4 entry or part of it): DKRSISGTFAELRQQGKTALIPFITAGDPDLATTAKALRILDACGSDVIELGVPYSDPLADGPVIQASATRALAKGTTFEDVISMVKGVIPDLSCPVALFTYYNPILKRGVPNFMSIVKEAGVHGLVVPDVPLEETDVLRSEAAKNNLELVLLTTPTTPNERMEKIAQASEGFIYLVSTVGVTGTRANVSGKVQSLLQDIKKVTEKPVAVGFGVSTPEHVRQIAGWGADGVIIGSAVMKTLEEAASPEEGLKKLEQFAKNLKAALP
T1 sequence (P43284 46-443, further chain): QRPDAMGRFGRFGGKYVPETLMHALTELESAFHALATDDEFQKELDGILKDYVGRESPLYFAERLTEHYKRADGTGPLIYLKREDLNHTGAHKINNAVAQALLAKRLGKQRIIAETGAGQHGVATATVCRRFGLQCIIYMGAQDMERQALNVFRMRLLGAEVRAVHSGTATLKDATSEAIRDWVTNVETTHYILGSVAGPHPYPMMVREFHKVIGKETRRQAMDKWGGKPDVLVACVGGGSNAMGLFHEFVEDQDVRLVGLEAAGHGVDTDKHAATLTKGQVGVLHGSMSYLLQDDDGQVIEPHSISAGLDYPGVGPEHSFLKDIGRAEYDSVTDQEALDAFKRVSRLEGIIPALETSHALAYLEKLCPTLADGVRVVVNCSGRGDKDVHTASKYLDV
Excerpt: steady-state kinetics, coupled assay with GAP dehydrogenase (NAD+) on ZmTrpA + ZmTrpB

[2] = target: T2, ZmTrpA^L6BX1 (ZmTrpA_L6zmBX1) (Zea mays, UniProt B2Y0K4, T232V/V233N/T238P/S243N/G244P/K245R); type: biochemical; conditions: retro-aldol cleavage; 100 mM EPPS/KOH pH 7.5, 180 mM KCl, 40 μM PLP, 6 mM NAD+, 20 mM Na3AsO4, 30 °C; no TrpB; cited from earlier work
T2 construct: gene TSA; ZmTrpA with loop 6 replaced by that of ZmBX1; without TrpB
T2 sequence (B2Y0K4 entry or part of it T232V/V233N/T238P/S243N/G244P/K245R): as the sequence (B2Y0K4 entry or part of it) above, with T179V, V180N, T185P, S190N, G191P, K192R counted along it
Excerpt: steady-state kinetics, coupled assay with GAP dehydrogenase (NAD+) on ZmTrpA^L6BX1 (ZmTrpA_L6zmBX1)

[3] = target: T3, ZmTrpA^L6BX1 + ZmTrpB (Zea mays, UniProt B2Y0K4, T232V/V233N/T238P/S243N/G244P/K245R, form not given); type: biochemical; conditions: retro-aldol cleavage, 100 mM EPPS/KOH pH 7.5, 180 mM KCl, 40 μM PLP, 6 mM NAD+, 20 mM Na3AsO4, 100 mM L-serine, 30 °C, variant ZmTrpA^SPM4-L6BX1
T3 construct: gene TSA; ZmTrpA with loop 6 of ZmBX1, in complex with ZmTrpB in excess; with Tryptophan synthase beta chain, chloroplastic
T3 sequence (P43284 46-443, stated change not applied, form open): as the sequence (P43284 46-443, further chain) above
T3 sequence (B2Y0K4 entry or part of it T232V/V233N/T238P/S243N/G244P/K245R, form open): as the sequence (B2Y0K4 entry or part of it) above, with T179V, V180N, T185P, S190N, G191P, K192R counted along it
Excerpt: steady-state kinetics, coupled assay with GAP dehydrogenase (NAD+) on ZmTrpA^L6BX1 + ZmTrpB

[4] = substrate: O=P(O)(O)OC[C@@H](O)[C@@H](O)c1c[nH]c2ccccc12; type: biochemical, Zea mays; conditions: retro-aldol cleavage, 100 mM EPPS/KOH pH 7.5, 180 mM KCl, 40 μM PLP, 6 mM NAD+, 20 mM Na3AsO4, 30 °C, no TrpB
Excerpt: steady-state kinetics, coupled assay with GAP dehydrogenase (NAD+) on ZmBX1

Q: What does the source list for `O=P(O)(O)OC[C@@H](O)[C@@H](O)c1c[nH]c2ccccc12` [indole-glycerol phosphate]?
A: Km ([1]; variant ZmTrpA^SPM4): 134 ± 9 µM; Km ([1]; variant ZmTrpA^SPM6): 103 ± 13.1 µM; Km [2]: 3350 ± 340 µM; Km [3]: 70 ± 12 µM

B1: ZmBX1 (Zea mays) (protein)
chain: SRPVSDTMAALMAKGKTAFIPYITAGDPDLATTAEALRLLDGCGADVIELGVPCSDPYIDGPIIQASVARALASGTTMDAVLEMLREVTPELSCPVVLLSYYKPIMSRSLAEMKEAGVHGLIVPDLPYVAAHSLWSEAKNNNLELVLLTTPAIPEDRMKEITKASEGFVYLVSVNGVTGPRANVNPRVESLIQEVKKVTNKPVAVGFGISKPEHVKQIAQWGADGVIIGSAMVRQLGEAASPKQGLRRLEEYARGMKNALP
notes: standalone enzyme; construct details only in supplement
Q: Which results are given for B1?
A: Km [4]: 11 ± 1.3 µM; kcat [4]: 5.2 ± 0.13 s⁻¹; kcat/Km [4]: 474000 ± 56100 M⁻¹ s⁻¹
